In patent publication US10271552B2, “Heterocyclic compounds as pesticides” (Bayer CropScience Aktiengesellschaft, priority 2015, dated 2019):

Key:
Format in all cases: in vivo
Boophilus microplus = Boophilus microplus injection test; conditions: 20 μg/animal injected; adult engorged female ticks; after 7 days
Procedure: Boophilus microplus—Injection Test
Solvent: dimethyl sulfoxide
To produce a suitable preparation of active compound, 10 mg of active compound are dissolved in 0.5 ml solvent, and the concentrate is diluted with solvent to the desired concentration.
Five adult engorged female ticks (Boophilus microplus) are injected with 1 μl compound solution into the abdomen. The ticks are transferred into replica plates and incubated in a climate chamber.
After 7 days egg deposition of fertile eggs is monitored. Eggs where fertility is not visible are stored in a climate chamber till hatching after about 42 days. An efficacy of 100% means all eggs are infertile; 0% means all eggs are fertile.

Meloidogyne incognita = Meloidogyne incognita test; conditions: 20 ppm; eggs and larvae, salad seeds in sand; after 14 days
Procedure: Meloidogyne incognita—Test
Solvent: 125.0 parts by weight of acetone
To produce a suitable preparation of active compound, 1 part by weight of active compound is mixed with the stated amount of solvent, and the concentrate is diluted with water to the desired concentration.
Vessels are filled with sand, a solution of the active ingredient, a suspension containing eggs and larvae of the southern root-knot nematode (Meloidogyne incognita) and salad seeds. The salad seeds germinate and the seedlings grow. Galls develop in the roots.
After 14 days the nematicidal activity is determined on the basis of the percentage of gall formation. 100% means no galls were found and 0% means the number of galls found on the roots of the treated plants was equal to that in untreated control plants.

Ctenocephalides felis = Ctenocephalides felis in-vitro contact test, adult cat flea; conditions: 5 μg/cm^2 (=500 g/ha), after 48 hours
Procedure: Ctenocephalides felis—In-Vitro Contact Tests Adult Cat Flea
9 mg compound is solved in 1 ml acetone and diluted with acetone to the desired concentration. 250 μl of the test solution is filled in 25 ml glass test tubes and homogeneously distributed on the inner walls by rotation and tilting on a shaking device (2 h at 30 rpm). With a compound concentration of 900 ppm, an inner surface of 44.7 cm^2 and a homogeneous distribution, a dose of 5 μg/cm^2 is achieved.
After the solvent has evaporated, each test tube is filled with 5-10 adult cat fleas (Ctenocephalides felis), closed with a perforated lid and incubated in a lying position at room temperature and relative humidity. After 48 hours efficacy is determined. The fleas are patted on the ground of the tubes and are incubated on a heating plate at 45-50° C. for at most 5 minutes. Immotile or uncoordinated moving fleas, which are not able to escape the heat by climbing upwards, are marked as dead or moribund.
An efficacy of 100% means all fleas are dead or moribund; 0% means no fleas are dead or moribund.

Diabrotica balteata = Diabrotica balteata spray test; conditions: 160 μg/well; germinated wheat seeds, larvae; after 7 days
Procedure: Diabrotica Balteata—Spray Test
(§1) Solvent: 78.0 parts by weight of acetone • • 1.5 parts by weight of dimethylformamide
(§2) Emulsifier: alkylarylpolyglycol ether
(§3) To produce a suitable preparation of active compound, 1 part by weight of active compound is mixed with the stated amount of solvent, and the concentrate is diluted with water, containing an emulsifier concentration of 1000 ppm, to the desired concentration. Further test concentrations are prepared by dilution with emulsifier containing water.
Soaked wheat seeds (Triticum aestivum) are placed in a multiple well plate filled with agar and some water and are incubated for 1 day to germinate (5 seeds per well). The germinated wheat seeds are sprayed with a test solution containing the desired concentration of the active ingredient. Afterwards each unit is infected with 10-20 larvae of the banded cucumber beetle (Diabrotica balteata).
After 7 days efficacy in % is determined. 100% means all the seedlings have grown up like in the untreated, uninfected control; 0% means none of the seedlings have grown.

Nezara viridula [1] = assay: Nezara viridula spray test (solvent 78.0 acetone / 1.5 dimethylformamide); conditions: 96 h, barley plants, larvae, after 4 days
Procedure: (§4) Nezara viridula—Spray Test
as §1, §2, §3
(§5) Barley plants (Hordeum vulgare) infested with larvae of the southern green stink bug (Nezara viridula) are sprayed with a test solution containing the desired concentration of the active ingredient.
(§6) After 4 days mortality in % is determined. 100% means all the stink bugs have been killed; 0% means none of the stink bugs have been killed.

Phaedon cochleariae = Phaedon cochleariae spray test; conditions: foliar, 168 h, Chinese cabbage leaf disks, larvae, after 7 days
Procedure: Phaedon cochleariae—Spray Test
as §1, §2
as §3, with “solvents” for “solvent,”, “and” for “and the concentrate”
Chinese cabbage (Brassica pekinensis) leaf disks are sprayed with a preparation of the active ingredient of the desired concentration. Once dry, the leaf disks are infested with mustard beetle larvae (Phaedon cochleariae).
After 7 days mortality in % is determined. 100% means all beetle larvae have been killed and 0% means none of the beetle larvae have been killed.

Nezara viridula [2] = assay: Nezara viridula spray test (solvent 52.5 acetone / 7 dimethylformamide); conditions: 96 h, barley plants, larvae, after 4 days
Procedure: as §4
Solvent: 52.5 parts by weight of acetone • 7 parts by weight of dimethylformamide
Emulsifier: alkylaryl polyglycolether
To produce a suitable preparation of active compound, 1 part by weight of active compound is mixed with the stated amount of solvent, and the concentrate is diluted with water, containing an emulsifier concentration of 1000 ppm, to the desired concentration. Ammonium salt and/or penetration enhancer in a dosage of 1000 ppm are added to the desired concentration if necessary.
as §5, §6

Tetranychus urticae = Tetranychus urticae spray test OP-resistant; conditions: foliar, 144 h, French bean leaf disks, all instars, after 6 days
Procedure: Tetranychus urticae—Spray Test OP-Resistant
Solvent: 78.0 parts by weight acetone • 1.5 parts by weight dimethylformamide
as §2
as §3, with “solvents” for “solvent,”, “and” for “and the concentrate”
French bean (Phaseolus vulgaris) leaf disks infected with all instars of the two spotted spidermite (Tetranychus urticae), are sprayed with a preparation of the active ingredient of the desired concentration.
After 6 days mortality in % is determined. 100% means all spider mites have been killed and 0% means none of the spider mites have been killed.

| Structure (SMILES) | efficacy (infertile eggs) (Boophilus microplus) [%] | nematicidal activity (gall formation) (Meloidogyne incognita) [%] | efficacy (seedling growth) (Diabrotica balteata) [%] | further results |
| --- | --- | --- | --- | --- |
| O=C(Nc1nc(-c2c(F)cccc2F)ns1)c1ccccc1Cl [Compound I-1-3] | 100 | 90 |  |  |
| O=C(Nc1nc(-c2c(F)cccc2F)ns1)c1ccccc1C(F)(F)F [Compound I-1-4] | 100 | 90 |  | efficacy (fleas dead or moribund) (Ctenocephalides felis): 100% |
| O=C(Nc1nc(-c2c(F)cccc2F)ns1)c1nccnc1C(F)(F)F [Compound I-1-7] | 100 |  | 100 | efficacy (fleas dead or moribund) (Ctenocephalides felis): 100% |
| O=C(Nc1nc(-c2c(F)cccc2F)ns1)c1ccccc1I [Compound I-1-8] | 100 |  |  |  |
| O=C(Nc1nc(-c2c(F)cccc2F)ns1)c1ccccc1C(F)F [Compound I-1-9] | 100 | 70 |  |  |
| O=C(Nc1nc(-c2c(F)cccc2F)ns1)c1ncccc1C(F)(F)F [Compound I-1-13] |  | 90 |  |  |
| O=C(Nc1nc(-c2c(F)cccc2F)ns1)c1cccnc1C(F)F [Compound I-1-14] | 100 | 100 |  |  |
| O=C(Nc1nc(-c2ccccc2C(F)(F)F)ns1)c1ccccc1Br [Compound I-1-16] |  | 90 |  |  |
| O=C(Nc1nc(-c2ccccc2C(F)(F)F)ns1)c1ncccc1C(F)(F)F [Compound I-1-19] |  | 90 | 100 |  |
| O=C(Nc1nc(-c2ccccc2Cl)ns1)c1ccccc1Br [Compound I-1-21, 2-Bromo-N-[3-(2-chlorophenyl)-1,2,4-thiadiazol-5-yl]benzamide] |  |  |  | mortality at 500 g/ha (Nezara viridula [1]): ≥ 90%; mortality at 500 g/ha (Phaedon cochleariae): ≥ 80% |
| O=C(Nc1nc(-c2ccccc2Cl)ns1)c1ccccc1Cl [Compound I-1-22] | 100 |  |  |  |
| O=C(Nc1nc(-c2c(F)cccc2F)ns1)c1cccnc1Cl [Compound I-1-29, 2-Chloro-N-[3-(2,6-difluorophenyl)-1,2,4-thiadiazol-5-yl]nicotinamide] |  | 100 | 80 | mortality at 500 g/ha (Nezara viridula [1]): ≥ 90%; mortality at 500 g/ha (Nezara viridula [2]): ≥ 90% |
| O=C(Nc1nc(-c2c(F)cccc2F)ns1)c1cccnc1C(F)(F)F.[Na+] [Compound I-1-30, Sodium [3-(2,6-difluorophenyl)-1,2,4-thiadiazol-5-yl]{[2-(trifluoromethyl)pyridin-3-yl]carbonyl}azanide] | 100 | 100 |  | efficacy (fleas dead or moribund) (Ctenocephalides felis): 90%; mortality at 500 g/ha (Tetranychus urticae): ≥ 70%; mortality at 500 g/ha (Nezara viridula [2]): ≥ 90%; mortality at 500 g/ha (Phaedon cochleariae): ≥ 80% |
| CCN(C(=O)c1cccnc1C(F)(F)F)c1nc(-c2c(F)cccc2F)ns1 [Compound I-1-34, N-[3-(2,6-Difluorophenyl)-1,2,4-thiadiazol-5-yl]-N-ethyl-2-(trifluoromethyl)nicotinamide] |  |  |  | mortality at 500 g/ha (Tetranychus urticae): ≥ 70% |
| CCc1ncccc1C(=O)Nc1nc(-c2c(F)cccc2F)ns1 [Compound I-1-36, N-[3-(2,6-Difluorophenyl)-1,2,4-thiadiazol-5-yl]-2-ethylnicotinamide] |  | 100 |  | mortality at 500 g/ha (Phaedon cochleariae): ≥ 80% |
| O=C(Nc1nc(-c2c(F)cccc2F)ns1)c1cccnc1CC(F)(F)F [Compound I-1-38] |  |  | 80 |  |
| O=C(Nc1nc(-c2c(F)cccc2F)ns1)C1=C(C(F)F)OCCS1 [Compound I-1-39] |  | 70 |  |  |
| O=C(Nc1nc(-c2ccccc2Cl)ns1)c1cccnc1C(F)(F)F [Compound I-1-43, N-[3-(2-chlorophenyl)-1,2,4-thiadiazol-5-yl]-2-(trifluoromethyl)nicotinamide] |  |  |  | mortality at 500 g/ha (Tetranychus urticae): ≥ 70%; mortality at 500 g/ha (Nezara viridula [1]): ≥ 90%; mortality at 500 g/ha (Nezara viridula [2]): ≥ 90%; mortality at 500 g/ha (Phaedon cochleariae): ≥ 80% |
| O=C(Nc1nc(-c2ccccc2Cl)ns1)c1nccnc1C(F)(F)F [Compound I-1-44] | 100 |  | 100 |  |
| CCc1ncccc1C(=O)Nc1nc(-c2ccccc2Cl)ns1 [Compound I-1-48] |  | 90 |  |  |
| Cc1ccccc1-c1nsc(NC(=O)c2cccnc2C(F)(F)F)n1 [Compound I-1-53] |  |  | 80 |  |
| O=C(Nc1nc(-c2cccc(F)c2C(F)(F)F)ns1)c1cccnc1C(F)(F)F [Compound I-1-61] |  |  | 80 |  |
| O=C(Nc1nc(-c2cc(F)ccc2C(F)(F)F)ns1)c1cccnc1C(F)(F)F [Compound I-1-64] |  |  | 100 |  |
| O=C(Nc1nc(-c2ccc(C(F)(F)F)cc2C(F)(F)F)ns1)c1cccnc1C(F)(F)F [Compound I-1-66, N-{3-[2,4-Bis(trifluoromethyl)phenyl]-1,2,4-thiadiazol-5-yl}-2-(trifluoromethyl)nicotinamide] |  |  |  | mortality at 500 g/ha (Nezara viridula [2]): ≥ 90% |
| N#Cc1ccccc1-c1nsc(NC(=O)c2cccnc2C(F)(F)F)n1 [Compound I-1-67, N-[3-(2-Cyanophenyl)-1,2,4-thiadiazol-5-yl]-2-(trifluoromethyl)nicotinamide] |  |  |  | mortality at 500 g/ha (Nezara viridula [2]): ≥ 90% |
| O=C(Nc1nc(-c2ccccc2OC(F)(F)F)ns1)c1ccccc1C(F)(F)F [Compound I-1-70, N-{3-[2-(trifluoromethoxy)phenyl]-1,2,4-thiadiazol-5-yl}-2-(trifluoromethyl)benzamide] |  |  | 100 | mortality at 500 g/ha (Phaedon cochleariae): ≥ 80% |
| O=C(Nc1nc(-c2ccccc2F)ns1)c1ccccc1C(F)(F)F [Compound I-1-73] |  |  | 100 |  |
| O=C(Nc1nc(-c2c(F)cccc2F)ns1)c1cccc(Cl)c1C(F)(F)F [Compound I-1-77] |  |  | 80 |  |
| N#Cc1cccc(C#N)c1-c1nsc(NC(=O)c2cccnc2C(F)(F)F)n1 [Compound I-1-78, N-[3-(2,6-Dicyanophenyl)-1,2,4-thiadiazol-5-yl]-2-(trifluoromethyl)nicotinamide] |  |  |  | mortality at 500 g/ha (Phaedon cochleariae): ≥ 80% |
| O=C(Nc1nc(-c2cccnc2Cl)ns1)c1ccccc1C(F)(F)F [Compound I-3-1, N-[3-(2-Chloropyridin-3-yl)-1,2,4-thiadiazol-5-yl]-2-(trifluoromethyl)benzamide] |  |  |  | mortality at 500 g/ha (Nezara viridula [2]): ≥ 90%; mortality at 500 g/ha (Phaedon cochleariae): ≥ 80% |
